# Target: Met (Homo sapiens, UniProt P08581)
# Assay: MET Luminescence-based Enzyme Assay (Kinase-Glo)
# Assay type: biochemical
# Set-up: Sf9 insect cell culture expressing the kinase domain of human Met; 6x Histidine tag (TEV-cleavable) (cleaved yes); made in house; host or cells: Sf9 insect cells
# Text: Homogeneous luminescence-based inhibitor screening assays were developed for c-Abl, MET, AurA, and PDK1 kinases (among others). Each of these assays made use of an ATP depletion assay (Kinase-Glo™, Promega Corporation, Madison, Wis.) to quantitate kinase activity. The Kinase-Glo™ format uses a thermostable luciferase to generate luminescent signal from ATP remaining in solution following the kinase reaction. The luminescent signal is inversely correlated with the amount of kinase activity.
# Dose response was analyzed using the equation: y=min+{(max−min)/(1 +10^[compound]-logIC50)}, where y is the observed initial slope, max=the slope in the absence of inhibitor, min=the slope at infinite inhibitor, and the IC50 is the [compound] that corresponds to ½ the total observed amplitude (Amplitude=max−min).
# The cell pellets produced from half of a 12 L Sf9 insect cell culture expressing the kinase domain of human Met were resuspended in a buffer containing 50 mM Tris-HCl pH 7.7 and 250 mM NaCl, in a volume of approximately 40 ml per 1 L of original culture. One tablet of Roche Complete, EDTA-free protease inhibitor cocktail (Cat# 1873580) was added per 1 L of original culture. The suspension was stirred for 1 hour at 4° C. Debris was removed by centrifugation for 30 minutes at 39,800×g at 4° C. The supernatant was decanted into a 500 ml beaker and 10 ml of 50% slurry of Qiagen Ni-NTA Agarose (Cat# 30250) that had been pre-equilibrated in 50 mM Tris-HCl pH 7.8, […], 10% Glycerol, 10 mM Imidazole, and 10 mM Methionine, were added and stirred for 30 minutes at 4° C. The sample was then poured into a drip column at 4° C. and washed with 10 column volumes of 50 mM Tris-HCl pH 7.8, 500 mM NaCl, 10% Glycerol, 10 mM Imidazole, and 10 mM Methionine. The protein was eluted using a step gradient with two column volumes each of the same buffer containing 50 mM, 200 mM, and 500 mM Imidazole, sequentially. The 6× Histidine tag was cleaved overnight using 40 units of TEV protease (Invitrogen Cat# 10127017) per 1 mg of protein while dialyzing in 50 mM Tris-HCl pH 7.8, 500 mM NaCl, 10% Glycerol, 10 mM Imidazole, and 10 mM Methionine at 4° C. The 6× Histidine tag was removed by passing the sample over a Pharmacia 5 ml IMAC column (Cat# 17-0409-01) charged with Nickel and equilibrated in 50 mM Tris-HCl pH 7.8, 500 mM NaCl, 10% Glycerol, 10 mM Imidazole, and 10 mM Methionine. The cleaved protein bound to the Nickel column at a low affinity and was eluted with a step gradient. The step gradient was run with 15% and then 80% of the B-side (A-side=50 mM Tris-HCl pH 7.8, 500 mM NaCl, 10% Glycerol, 10 mM Imidazole, and 10 mM Methionine; B-side=50 mM Tris-HCl pH 7.8, 500 mM NaCl, 10% Glycerol, 500 mM Imidazole, and 10 mM Methionine) for 4 column volumes each. The Met protein eluted in the first step (15%), whereas the non-cleaved Met and the cleaved Histidine tag eluted in the 80% fractions. The 15% fractions were pooled after SDS-PAGE gel analysis confirmed the presence of cleaved Met; further purification was done by gel filtration chromatography on an Amersham Biosciences HiLoad 16/60 Superdex 200 prep grade (Cat# 17-1069-01) equilibrated in 50 mM Tris-HCl pH 8.5, 150 mM NaCl, ˜10% Glycerol and 5 mM DTT. The cleanest fractions were combined and concentrated to ˜10.4 mg/ml by centrifugation in an Amicon Ultra-15 10,000 Da MWCO centrifugal filter unit (Cat# UFC901024).
# MET Luminescence-based Enzyme Assay
# Materials: Poly Glu-Tyr (4:1) substrate (Sigma Cat# P-0275), ATP (Sigma Cat#A-3377, FW=551), HEPES buffer, pH 7.5, Bovine serum albumin (BSA) (Roche 92423420), MgCl2, Staurosporine (Streptomyces sp. Sigma Cat#85660-1MG), white Costar 384-well flat-bottom plate (VWR Cat#29444-088). MET kinase (see below), Kinase-Glo™ (Promega Cat#V6712).
# Stock Solutions: 10 mg/ml poly Glu-Tyr in water, stored at −20° C.; 100 mM HEPES buffer, pH 7.5 (5 ml 1M stock+45 ml miliQH2O); 10 mM ATP (5.51 mg/ml in dH2O) stored at −20° C. […]
# Chain of Met (P08581 1078-1345 limits assumed): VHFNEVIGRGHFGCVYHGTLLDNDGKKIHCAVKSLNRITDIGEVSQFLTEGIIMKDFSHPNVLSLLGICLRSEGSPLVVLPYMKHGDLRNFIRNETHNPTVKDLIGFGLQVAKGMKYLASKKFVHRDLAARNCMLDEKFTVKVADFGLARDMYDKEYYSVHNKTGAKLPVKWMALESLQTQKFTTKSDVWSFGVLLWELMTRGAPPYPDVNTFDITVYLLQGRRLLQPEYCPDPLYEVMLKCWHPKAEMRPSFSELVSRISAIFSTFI
row,IC50 [µM],Compound
1,> 10,"O=C(Nc1cc[nH]n1)Nc1nc2[nH]nc(-n3cncc3-c3ccccc3Cl)c2s1 [1-{3-[5-(2-Chloro-phenyl)-imidazol-1-yl]-1H-pyrazolo[3,4-d]thiazol-5-yl}-3-(1H-pyrazol-3-yl)-urea]"
2,1 to 10,"O=C(Nc1nc2[nH]nc(-n3cncc3-c3ccc4ccccc4c3)c2s1)C1CC1 [Cyclopropanecarboxylic acid [3-(5-naphthalen-2-yl-imidazol-1-yl)-1H-pyrazolo[3,4-d]thiazol-5-yl]-amide]"
3,> 10,"O=C(Nc1nc2[nH]nc(-n3cncc3-c3ccccc3)c2s1)C1CC1 [Cyclopropanecarboxylic acid [3-(5-phenyl-imidazol-1-yl)-1H-pyrazolo[3,4-d]thiazol-5-yl]-amide]"
4,> 10,"O=C(Nc1nc2[nH]nc(-n3cncc3-c3ccccn3)c2s1)C1CC1 [Cyclopropanecarboxylic acid [3-(5-pyridin-2-yl-imidazol-1-yl)-1H-pyrazolo[3,4-d]thiazol-5-yl]-amide]"
5,1 to 10,"O=C(Nc1nc2[nH]nc(-n3cncc3-c3cc(Cl)cc(Cl)c3Cl)c2s1)C1CC1 [Cyclopropanecarboxylic acid {3-[5-(2,3,5-trichloro-phenyl)-imidazol-1-yl]-1H-pyrazolo[3,4-d]thiazol-5-yl}-amide]"
6,1 to 10,"O=C(Nc1nc2[nH]nc(-n3cncc3-c3c(Cl)ccc(Cl)c3Cl)c2s1)C1CC1 [Cyclopropanecarboxylic acid {3-[5-(2,3,6-trichloro-phenyl)-imidazol-1-yl]-1H-pyrazolo[3,4-d]thiazol-5-yl}-amide]"
7,1 to 10,"O=C(Nc1nc2[nH]nc(-n3cncc3-c3cccc(F)c3F)c2s1)C1CC1 [Cyclopropanecarboxylic acid {3-[5-(2,3-difluoro-phenyl)-imidazol-1-yl]-1H-pyrazolo[3,4-d]thiazol-5-yl}-amide]"
8,1 to 10,"O=C(Nc1nc2[nH]nc(-n3cncc3-c3c(Cl)cccc3Cl)c2s1)C1CC1 [Cyclopropanecarboxylic acid {3-[5-(2,6-dichloro-phenyl)-imidazol-1-yl]-1H-pyrazolo[3,4-d]thiazol-5-yl}-amide]"
9,0.1 to 1,"COc1ccc2nc(Cl)c(-c3cncn3-c3n[nH]c4nc(NC(=O)C5CC5)sc34)cc2c1 [Cyclopropanecarboxylic acid {3-[5-(2-chloro-6-methoxy-quinolin-3-yl)-imidazol-1-yl]-1H-pyrazolo[3,4-d]thiazol-5-yl}-amide]"
10,0.1 to 1,"O=C(Nc1nc2[nH]nc(-n3cncc3-c3ccccc3Cl)c2s1)C1CC1 [Cyclopropanecarboxylic acid {3-[5-(2-chloro-phenyl)-imidazol-1-yl]-1H-pyrazolo[3,4-d]thiazol-5-yl}-amide]"
11,0.1 to 1,"NC(=O)COc1ccc(-c2cncn2-c2n[nH]c3nc(NC(=O)C4CC4)sc23)c(Cl)c1 [Cyclopropanecarboxylic acid {3-[5-(4-carbamoylmethoxy-2-chloro-phenyl)-imidazol-1-yl]-1H-pyrazolo[3,4-d]thiazol-5-yl}-amide]"
12,> 10,"CS(=O)(=O)c1ccc(F)cc1-c1cncn1-c1n[nH]c2nc(NC(=O)C3CC3)sc12 [Cyclopropanecarboxylic acid {3-[5-(5-fluoro-2-methanesulfonyl-phenyl)-imidazol-1-yl]-1H-pyrazolo[3,4-d]thiazol-5-yl}-amide]"

# From patent US20070173488A1, “Pyrazolothiazole Protein Kinase Modulators” (SGX Pharmaceuticals, Inc., priority 2005, published 2007)
